Results on ten compounds are retold here after ChEMBL document CHEMBL1201862, “PubChem BioAssay data set” (2004).

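Briefly, cells in 96-well plates were exposed to five compound concentrations for 48 h, and endpoints were estimated by linear interpolation. Here, GI50 denotes the concentration required for 50% inhibition of growth.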 Activity calls are given as the source filed them. No stated cut-off is given here; in the data, active = GI50 up to about 1.1 µM and inactive = higher.

Test systems include HL-60; RXF 393; HOP-92; K562; SK-OV-3; SK-MEL-2; ACHN; SK-MEL-28; HCT-15; SK-MEL-5; IGROV-1; NCI-H226; SW-620; MDA-MB-231; SF-539; SNB-75; UACC-257; M14; KM12; MDA-N.
Assay in all cases: inhibition of tumour cell growth, NCI panel, 48 h

`c1c[nH]c(CN2CCOCC2)n1`: the GI50 with HL-60, in the test with RXF 393, in the test on HOP-92, in the test on K562, in the test with SK-OV-3 and with SK-MEL-2 was > 100 µM (inactive) each time. For the same compound, the GI50 with ACHN is > 100 µM (inactive); with SK-MEL-28, > 100 µM (inactive); in the test with HCT-15 it was more than 100 µM; in the test on SK-MEL-5, > 100 µM (inactive); with IGROV-1, > 100 µM (inactive); with NCI-H226, > 100 µM (inactive). The GI50 in the test on SW-620, in the test with MDA-MB-231, in the test on SF-539, in the test on SNB-75, with UACC-257 and in the test on M14 was > 100 µM (inactive) throughout. Besides, the GI50 in the test on KM12 and in the test with MDA-N was > 100 µM (inactive) in each case.

Take `CCC/N=C/c1c(O)c(O)c(C(C)C)c2cc(C)c(-c3c(C)cc4c(C(C)C)c(O)c(O)c(/C=N/CCC)c4c3O)c(O)c12`: the GI50 is 3.01 µM (inactive) in the test on HL-60; 3.54 µM (inactive) with RXF 393; 2.49 µM (inactive) in the test on HOP-92; 2.96 µM (inactive) with K562; 4.75 µM (inactive) with SK-OV-3; 2.76 µM (inactive) with SK-MEL-2. Also, the GI50 in the test with ACHN was 3.99 µM (inactive); in the test on SK-MEL-28, 12.6 µM (inactive); with HCT-15 it was 7.46 µM; in the test with SK-MEL-5, 18.7 µM (inactive); with IGROV-1 it was 11.1 µM (inactive); in the test on NCI-H226, 14.6 µM (inactive). Moreover, the GI50 in the test on SW-620 was 6.55 µM (inactive); with MDA-MB-231, 13.9 µM (inactive); in the test on SF-539 it was 5.65 µM (inactive); with SNB-75, 8.79 µM (inactive); in the test on UACC-257, 9.59 µM (inactive); with M14, 7.41 µM (inactive). Also, the GI50 was 3.45 µM (inactive) in the test on KM12 and 8.63 µM (inactive) in the test on MDA-N.

As to `Clc1ccc(CCNC2(c3cc4ccccc4s3)CCCCC2)cc1Cl`, the GI50 is 16.7 µM (inactive) in the test on HL-60; 17.7 µM (inactive) with RXF 393; 3.84 µM (inactive) with HOP-92; 15.5 µM (inactive) in the test with K562; 29.6 µM (inactive) in the test with SK-OV-3; 19 µM (inactive) in the test on SK-MEL-2. Besides, the GI50 is 26.2 µM (inactive) in the test on ACHN; 25.2 µM (inactive) in the test with SK-MEL-28; 15.3 µM in the test with HCT-15; 15.6 µM (inactive) in the test with SK-MEL-5; 40.8 µM (inactive) with IGROV-1; 17.3 µM (inactive) with NCI-H226. The GI50 in the test with SW-620 is 34.7 µM (inactive); with MDA-MB-231, 21.1 µM (inactive); in the test with SF-539, 16.9 µM (inactive); in the test with SNB-75 it was 14.2 µM (inactive); with UACC-257, 19 µM (inactive); with M14, 23.8 µM (inactive). In addition, the GI50 was 21.8 µM (inactive) with KM12 and 32.3 µM (inactive) with MDA-N.

For the compound `Cc1nc2ccccc2n1CCc1nc2ccccc2s1`, the GI50 is 14.3 µM (inactive) in the test with HL-60; 50 µM (inactive) with RXF 393; 32.9 µM (inactive) with HOP-92; 11 µM (inactive) in the test with K562; > 100 µM (inactive) in the test on SK-OV-3; 86.9 µM (inactive) in the test on SK-MEL-2. Besides, the GI50 with ACHN was 20 µM (inactive); with SK-MEL-28, > 100 µM (inactive); with HCT-15, 87.7 µM; with SK-MEL-5 it was 2.88 µM (inactive); in the test on IGROV-1 it was > 100 µM (inactive); in the test with NCI-H226, 0.857 µM (active). The GI50 in the test with SW-620 was 68.9 µM (inactive); in the test on MDA-MB-231, 39.6 µM (inactive); in the test with SF-539, 35.2 µM (inactive); with SNB-75 it was 78 µM (inactive); in the test with UACC-257, 9.95 µM (inactive); in the test on M14, 33 µM (inactive). The GI50 with KM12 is 56.1 µM (inactive); in the test with MDA-N it was 48.9 µM (inactive).

As to `COc1ccc(/N=C/C=C/Nc2ccc(OC)cc2)cc1`, the GI50 was 2.87 µM (inactive) in the test with HL-60; 7.67 µM (inactive) in the test with RXF 393; 15.3 µM (inactive) with HOP-92; 8.13 µM (inactive) in the test with K562; 19.7 µM (inactive) with SK-OV-3; 16.4 µM (inactive) in the test on SK-MEL-2. Further, the GI50 was 15.6 µM (inactive) in the test with ACHN; 15.2 µM (inactive) in the test with SK-MEL-28; 4.65 µM in the test with HCT-15; 4.66 µM (inactive) in the test with SK-MEL-5; 11.6 µM (inactive) in the test on IGROV-1; 17.5 µM (inactive) in the test on NCI-H226. Also, the GI50 is 2.69 µM (inactive) with SW-620; 2.38 µM (inactive) in the test on MDA-MB-231; 9.64 µM (inactive) in the test on SF-539; 16.9 µM (inactive) with SNB-75; 7.35 µM (inactive) in the test on UACC-257; 11 µM (inactive) in the test on M14. Also, the GI50 in the test on KM12 was 4.54 µM (inactive); with MDA-N it was 4.78 µM (inactive).

Consider `C=C1c2nc3ccccc3n2C=C(c2ccc(Cl)cc2)N1c1ccc(OCCN2CCOCC2)cc1`, for which the GI50 in the test with HL-60 was 7.91 µM (inactive); in the test with RXF 393 it was 32.7 µM (inactive); in the test with HOP-92 it was 50.8 µM (inactive); with K562, 9.82 µM (inactive); in the test on SK-OV-3, > 100 µM (inactive); with SK-MEL-2, 6.73 µM (inactive). Moreover, the GI50 in the test on ACHN was 34.9 µM (inactive); in the test with SK-MEL-28, 28.9 µM (inactive); with HCT-15, 12.7 µM; in the test on SK-MEL-5, 13.4 µM (inactive); in the test on IGROV-1 it was 14.5 µM (inactive); with NCI-H226, > 100 µM (inactive). The GI50 with SW-620 is 22 µM (inactive); in the test on MDA-MB-231, 62.4 µM (inactive); with SF-539, 55.3 µM (inactive); with SNB-75, > 100 µM (inactive); in the test on UACC-257 it was 22.7 µM (inactive); in the test with M14 it was 15.7 µM (inactive). The GI50 in the test with KM12 is 11.4 µM (inactive); with MDA-N, 42.2 µM (inactive).

For the compound `CCOP(=O)(OCC)C(=C1C=C(C(C)(C)C)C(=O)C(C(C)(C)C)=C1)P(=O)(OCC)OCC`, the GI50 in the test with HL-60 is 3.53 µM (inactive); in the test with RXF 393, 4.97 µM (inactive); with HOP-92, 2.39 µM (inactive); in the test on K562, > 4.8 µM (inactive); with SK-OV-3, > 10 µM (inactive); with SK-MEL-2, > 10 µM (inactive). For the same compound, the GI50 in the test on ACHN was 1.94 µM (inactive); in the test on SK-MEL-28 it was > 10 µM (inactive); with HCT-15, 3.1 µM; with SK-MEL-5, > 10 µM (inactive); in the test with IGROV-1 it was > 10 µM (inactive); in the test with NCI-H226, > 10 µM (inactive). The GI50 is 1.89 µM (inactive) in the test with SW-620; > 9.27 µM (inactive) with MDA-MB-231; > 10 µM (inactive) in the test with SF-539; > 10 µM (inactive) in the test with SNB-75; > 8.15 µM (inactive) in the test on UACC-257; 1.97 µM (inactive) in the test with M14. For the same compound, the results for the GI50 in the test with KM12 and in the test on MDA-N were > 10 µM (inactive) and > 5.68 µM (inactive), respectively.

With `CCOC(=O)C1=NN(c2ccc(C)cc2)C2(c3ccccc3)C=C(c3ccccc3)N(C)CCN12` (centres undefined), the GI50 was 30.7 µM (inactive) in the test on HL-60; > 100 µM (inactive) in the test with RXF 393; > 100 µM (inactive) with HOP-92; 71 µM (inactive) in the test with K562; > 100 µM (inactive) with SK-OV-3; > 100 µM (inactive) with SK-MEL-2. Also, the GI50 was > 100 µM (inactive) in the test on ACHN; > 100 µM (inactive) in the test with SK-MEL-28; more than 100 µM in the test with HCT-15; > 100 µM (inactive) in the test with SK-MEL-5; > 100 µM (inactive) in the test with IGROV-1; > 100 µM (inactive) in the test with NCI-H226. The GI50 is > 100 µM (inactive) with SW-620; > 100 µM (inactive) with MDA-MB-231; > 100 µM (inactive) in the test on SF-539; > 100 µM (inactive) in the test on SNB-75; 62.4 µM (inactive) with UACC-257; > 100 µM (inactive) in the test with M14. Further, the GI50 with KM12 is 48.5 µM (inactive); in the test with MDA-N it was > 100 µM (inactive).

`Oc1cc(O)c2c(c1)OC(c1ccc(O)c(O)c1)C(OC1(c3cc(O)c(O)c(O)c3)Oc3cc(O)cc(O)c3C(O)C1O)C2` (centres undefined): the GI50 in the test on HL-60 was 21.7 µM (inactive); in the test with RXF 393, 73.5 µM (inactive); in the test on HOP-92 it was 29.6 µM (inactive); in the test on K562, 21.1 µM (inactive); with SK-OV-3 it was > 65.5 µM (inactive); in the test on SK-MEL-2, 24.5 µM (inactive). The GI50 in the test on ACHN is 38.4 µM (inactive); in the test with SK-MEL-28 it was > 40.6 µM (inactive); in the test on HCT-15, 36 µM; in the test on SK-MEL-5 it was 18.3 µM (inactive); in the test with IGROV-1, 30.7 µM (inactive); in the test on NCI-H226 it was 21.1 µM (inactive). Moreover, the GI50 in the test with SW-620 was 24.8 µM (inactive); in the test on MDA-MB-231 it was 19.7 µM (inactive); in the test on SF-539 it was 32.1 µM (inactive); in the test on SNB-75 it was 26.4 µM (inactive); with UACC-257, 37.4 µM (inactive); with M14 it was 24.7 µM (inactive). Besides, the figures for the GI50 in the test on KM12 and in the test with MDA-N were 26.1 µM (inactive) and 20.3 µM (inactive), respectively.

With `Cc1ccc(S(=O)(=O)NC(CCC(=O)NN)C(=O)NN)cc1` (centres undefined), the GI50 in the test on HL-60, with RXF 393, with HOP-92, in the test with K562, with SK-OV-3 and in the test with SK-MEL-2 was > 100 µM (inactive) in each case. Also, the GI50 in the test with ACHN is > 100 µM (inactive); in the test with HCT-15, 0.304 µM; with SK-MEL-5, > 100 µM (inactive); in the test with IGROV-1 it was > 100 µM (inactive); in the test with NCI-H226, > 100 µM (inactive); with SW-620, > 100 µM (inactive). Besides, the GI50 with MDA-MB-231, in the test on SF-539, in the test on SNB-75, with UACC-257, with M14 and with KM12 was > 100 µM (inactive) each time. For the same compound, the GI50 in the test on MDA-N is > 100 µM (inactive).
